Assay results from patent publication US20240076285A1, “COMPOUNDS AND COMPOSITIONS FOR TREATING CONDITIONS ASSOCIATED WITH STING ACTIVITY” (IFM Due, Inc., priority 2020, published 2024).

Molecular target: T1, hSTING (Homo sapiens, UniProt Q86WV6, G230A/H232R/R293Q/R71H)
T1 construct: host or cells: THP1-Dual KO-IFNAR2 cells
Assay: STING reporter assay in THP1-Dual KO-IFNAR2 cells (2'3'cGAMP stimulation, luciferase reporter)
Format: cell-based
Conditions: 15 μM 2'3'cGAMP, 24 h
Method: STING pathway activation by the compounds described herein was measured using THP1-Dual™ cells (KO-IFNAR2).
THP1-Dual™ KO-IFNAR2 Cells (obtained from invivogen) were maintained in RPMI, 10% FCS, 5 ml P/S, 2 mM L-glut, 10 mM Hepes, and 1 mM sodium pyruvate. Compounds were spotted in empty 384 well tissue culture plates (Greiner 781182) by Echo for a final concentration of 0.0017-100 μM. Cells were plated into the TC plates at 40 μL per well, 2×10E6 cells/mL. For activation with STING ligand, 2′3′cGAMP (MW 718.38, obtained from Invivogen), was prepared in Optimem media.
The following solutions were prepared for each 1×384 plate: • Solution A: 2 mL Optimem with one of the following stimuli: • 60 μL of 10 mM 2′3′cGAMP→150 μM stock • Solution B: 2 mL Optimem with 60 μL Lipofectamine 2000→Incubate 5 min at RT
2 mL of solution A and 2 ml Solution B was mixed and incubated for 20 min at room temperature (RT). 20 μL of transfection solution (A+B) was added on top of the plated cells, with a final 2′3′cGAMP concentration of 15 μM. The plates were then centrifuged immediately at 340 g for 1 minute, after which they were incubated at 37° C., 5% CO2, >98% humidity for 24 h. Luciferase reporter activity was then measured. EC50 values were calculated by using standard methods known in the art.
Luciferase reporter assay: 10 μL of supernatant from the assay was transferred to white 384-plate with flat bottom and squared wells. One pouch of QUANTI-Luc™ Plus was dissolved in 25 mL of water. 100 μL of QLC Stabilizer per 25 mL of QUANTI-Luc™ Plus solution was added. 50 μL of QUANTI-Luc™ Plus/QLC solution per well was then added. Luminescence was measured on a Platereader (e.g., Spectramax I3X (Molecular Devices GF3637001)).
Luciferase reporter activity was then measured. EC50 values were calculated by using standard methods known in the art.

T1 sequence (Q86WV6 whole entry R71H/G230A/H232R/R293Q): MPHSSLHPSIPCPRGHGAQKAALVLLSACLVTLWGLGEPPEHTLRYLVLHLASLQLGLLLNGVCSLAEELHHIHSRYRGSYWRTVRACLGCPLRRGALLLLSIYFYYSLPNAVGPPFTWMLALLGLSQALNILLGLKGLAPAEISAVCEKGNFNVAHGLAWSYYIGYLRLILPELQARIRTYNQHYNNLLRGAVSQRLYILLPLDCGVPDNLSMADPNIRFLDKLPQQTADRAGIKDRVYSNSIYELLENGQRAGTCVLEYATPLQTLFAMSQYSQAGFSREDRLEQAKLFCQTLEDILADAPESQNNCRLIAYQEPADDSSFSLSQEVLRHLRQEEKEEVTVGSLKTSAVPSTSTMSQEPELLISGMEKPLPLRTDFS

EC50 (class symbols) [nM] | EC50 (numeric bound) [nM] | Structure (SMILES)
5000 to 100000 | – | N#Cc1cc(Nc2ccc3c(c2)C(=O)NC3)cc(Nc2ccc3cc[nH]c3c2)n1 [Compound 123, 6-[(1H-indol-6-yl)amino]-4-[(3-oxo-2,3-dihydro-1H-isoindol-5-yl)amino]pyridine-2-carbonitrile]
200 to 1000 | – | N#Cc1cc(Nc2ccc(C(F)(F)F)c(Cl)c2)cc(Nc2ccc3cc[nH]c3c2)n1 [Compound 133, 4-{[3-chloro-4-(trifluoromethyl)phenyl]amino}-6-[(1H-indol-6-yl)amino]pyridine-2-carbonitrile]
40 to 200 | – | N#Cc1cc(Nc2ccc(C(F)(F)F)c(F)c2)cc(Nc2cc(Cl)c3cc[nH]c3c2)n1 [Compound 159, 6-[(4-chloro-1H-indol-6-yl)amino]-4-{[3-fluoro-4-(trifluoromethyl)phenyl]amino}pyridine-2-carbonitrile]
200 to 1000 | – | N#Cc1cc(Nc2cncc(Cl)c2)cc(Nc2cc(Cl)c3cc[nH]c3c2)n1 [Compound 175, 6-[(4-chloro-1H-indol-6-yl)amino]-4-[(5-chloropyridin-3-yl)amino]pyridine-2-carbonitrile]
40 to 200 | – | N#Cc1cc(Nc2ccc3c(c2)OC(F)(F)C(F)(F)O3)cc(Nc2cc(Cl)c3cc[nH]c3c2)n1 [Compound 189, 6-[(4-chloro-1H-indol-6-yl)amino]-4-[(2,2,3,3-tetrafluoro-2,3-dihydro-1,4-benzodioxin-6-yl)amino]pyridine-2-carbonitrile]
1000 to 5000 | – | Fc1cnc(Nc2ccc3cc[nH]c3c2)cc1Nc1ccc2cc[nH]c2c1 [Compound 146]
40 to 200 | – | N#Cc1cc(Nc2ccc(OCC(F)(F)F)nc2)cc(Nc2cc(Cl)c3cc[nH]c3c2)n1 [Compound 153, 6-[(4-chloro-1H-indol-6-yl)amino]-4-{[6-(2,2,2-trifluoroethoxy)pyridin-3-yl]amino}pyridine 2-carbonitrile]
200 to 1000 | – | N#Cc1cc(Nc2cc(Cl)cc(OC(F)(F)F)c2)cc(Nc2cc(Cl)c3cc[nH]c3c2)n1 [Compound 167, 6-[(4-chloro-1H-indol-6-yl)amino]-4-{[3-chloro-5-(trifluoromethoxy)phenyl]amino}pyridine-2-carbonitrile]
40 to 200 | – | N#Cc1cc(Nc2ccc(F)c(Cl)c2)cc(Nc2cc(Cl)c3cc[nH]c3c2)n1 [Compound 169, 6-[(4-chloro-1H-indol-6-yl)amino]-4-[(3-chloro-4-fluorophenyl)amino]pyridine-2-carbonitrile]
– | > 30000 | CN1CCN(c2cc(C#N)nc(Nc3ccc4cc[nH]c4c3)c2)CC1 [Compound 121, 6-((1H-indol-6-yl)amino)-4-(4-methylpiperazin-1-yl)picolinonitrile]
5000 to 100000 | – | CNC(=O)c1ccc(Nc2cc(C#N)nc(Nc3ccc4cc[nH]c4c3)c2)cc1F [Compound 132, 4-({2-cyano-6-[(1H-indol-6-yl)amino]pyridin-4-yl}amino)-2-fluoro-N-methylbenzamide]
200 to 1000 | – | N#Cc1cc(Nc2ccc(F)c(Cl)c2)cc(Nc2ccc3cc[nH]c3c2)n1 [Compound 140, 6-((1H-indol-6-yl)amino)-4-((3-chloro-4-fluorophenyl)amino)picolinonitrile]
200 to 1000 | – | N#Cc1cc(Nc2ccc(C(F)(F)F)nc2)cc(Nc2ccc3cc[nH]c3c2)n1 [Compound 130, 6-[(1H-indol-6-yl)amino]-4-{[6-(trifluoromethyl)pyridin-3-yl]amino}pyridine-2-carbonitrile]
200 to 1000 | – | N#Cc1cc(Nc2cncc(F)c2)cc(Nc2cc(Cl)c3cc[nH]c3c2)n1 [Compound 158, 6-[(4-chloro-1H-indol-6-yl)amino]-4-[(5-fluoropyridin-3-yl)amino]pyridine-2-carbonitrile]
200 to 1000 | – | COc1cc(Cl)cc(Nc2cc(C#N)nc(Nc3ccc4cc[nH]c4c3)c2)c1 [Compound 112, 4-[(3-chloro-5-methoxyphenyl)amino]-6-[(1H-indol-6-yl)amino]pyridine-2-carbonitrile]
200 to 1000 | – | CCc1ccc(Nc2cc(C#N)nc(Nc3cc(Cl)c4cc[nH]c4c3)c2)cn1 [Compound 174, 6-[(4-chloro-1H-indol-6-yl)amino]-4-[(6-ethylpyridin-3-yl)amino]pyridine-2-carbonitrile]
200 to 1000 | – | N#Cc1cc(Nc2cc(Cl)cc(Cl)c2)cc(Nc2ccc3cc[nH]c3c2)n1 [Compound 136, 4-[(3,5-dichlorophenyl)amino]-6-[(1H-indol-6-yl)amino]pyridine-2-carbonitrile]

EC50 (class symbols) [nM] | EC50 (numeric bound) [nM] | Structure (SMILES)
1000 to 5000 | – | COc1ccc(Nc2cc(C#N)nc(Nc3ccc4cc[nH]c4c3)c2)cn1 [Compound 131, 6-[(1H-indol-6-yl)amino]-4-[(6-methoxypyridin-3-yl)amino]pyridine-2-carbonitrile]
1000 to 5000 | – | COc1cc(Nc2cc(C#N)nc(Nc3ccc4cc[nH]c4c3)c2)cnc1Cl [Compound 128, 4-[(6-chloro-5-methoxypyridin-3-yl)amino]-6-[(1H-indol-6-yl)amino]pyridine-2-carbonitrile]
200 to 1000 | – | CC1(C)C(=O)Nc2cc(Nc3cc(C#N)nc(Nc4cc(Cl)c5cc[nH]c5c4)c3)ccc21 [Compound 178, 6-[(4-chloro-1H-indol-6-yl)amino]-4-[(3,3-dimethyl-2-oxo-2,3-dihydro-1H-indol-6-yl)amino]pyridine-2-carbonitrile]
200 to 1000 | – | N#Cc1cc(Nc2ccc(C(F)(F)F)c(F)c2)cc(Nc2ccc3cc[nH]c3c2)n1 [Compound 104, 4-{[3-fluoro-4-(trifluoromethyl)phenyl]amino}-6-[(1H-indol-6-yl)amino]pyridine-2-carbonitrile]
200 to 1000 | – | Cc1nn(C)c2ccc(Nc3cc(C#N)nc(Nc4cc(Cl)c5cc[nH]c5c4)c3)cc12 [Compound 176, 6-[(4-chloro-1H-indol-6-yl)amino]-4-[(1,3-dimethyl-1H-indazol-5-yl)amino]pyridine-2-carbonitrile]
200 to 1000 | – | N#Cc1cc(Nc2cc(Cl)cc(OC(F)(F)F)c2)cc(Nc2ccc3cc[nH]c3c2)n1 [Compound 134, 4-{[3-chloro-5-(trifluoromethoxy)phenyl]amino}-6-[(1H-indol-6-yl)amino]pyridine-2-carbonitrile]
200 to 1000 | – | CC1(C)CCN(c2cc(C#N)nc(Nc3cc(Cl)c4cc[nH]c4c3)c2)CC1 [Compound 160, 6-[(4-chloro-1H-indol-6-yl)amino]-4-(4,4-dimethylpiperidin-1-yl)pyridine-2-carbonitrile]
1000 to 5000 | – | Cc1nc2ccc(Nc3cc(C#N)nc(Nc4ccc5cc[nH]c5c4)c3)cc2s1 [Compound 105, 6-[(1H-indol-6-yl)amino]-4-[(2-methyl-1,3-benzothiazol-6-yl)amino]pyridine-2-carbonitrile]
200 to 1000 | – | Cc1ccc(Nc2cc(C#N)nc(Nc3cc(Cl)c4cc[nH]c4c3)c2)cn1 [Compound 184, 6-[(4-chloro-1H-indol-6-yl)amino]-4-[(6-methylpyridin-3-yl)amino]pyridine-2-carbonitrile]
– | > 30000 | N#Cc1cc(N2CCC(F)(F)CC2)cc(Nc2ccc3cc[nH]c3c2)n1 [Compound 106, 4-(4,4-difluoropiperidin-1-yl)-6-[(1H-indol-6-yl)amino]pyridine-2-carbonitrile]
200 to 1000 | – | N#Cc1cc(N2CCC(Oc3ccccc3)CC2)cc(Nc2cc(Cl)c3cc[nH]c3c2)n1 [Compound 155, 6-[(4-chloro-1H-indol-6-yl)amino]-4-(4-phenoxypiperidin-1-yl)pyridine-2-carbonitrile]
200 to 1000 | – | N#Cc1cc(Nc2cc(F)cc(C(F)(F)F)c2)cc(Nc2ccc3cc[nH]c3c2)n1 [Compound 110, 4-{[3-fluoro-5-(trifluoromethyl)phenyl]amino} 6-[(1H-indol-6-yl)amino]pyridine-2-carbonitrile]
200 to 1000 | – | N#Cc1cc(Nc2ccc(OCC(F)(F)F)nc2)cc(Nc2ccc3cc[nH]c3c2)n1 [Compound 127, 6-[(1H-indol-6-yl)amino]-4-{[6-(2,2,2-trifluoroethoxy)pyridin-3-yl]amino}pyridine-2-carbonitrile]
1000 to 5000 | – | N#Cc1cc(Nc2ccc3c(c2)OCCO3)cc(Nc2cc(Cl)c3cc[nH]c3c2)n1 [Compound 191, 6-[(4-chloro-1H-indol-6-yl)amino]-4-[(2,3-dihydro-1,4-benzodioxin-6-yl)amino]pyridine-2-carbonitrile]
– | > 30000 | COC1CCN(c2cc(C#N)nc(Nc3ccc4cc[nH]c4c3)c2)CC1 [Compound 103, 6-[(1H-indol-6-yl)amino]-4-(4-methoxypiperidin-1-yl)pyridine-2-carbonitrile]
5000 to 100000 | – | CN1CCN(c2cc(C#N)nc(Nc3cc(Cl)c4cc[nH]c4c3)c2)CC1 [Compound 152, 6-[(4-chloro-1H-indol-6-yl)amino]-4-(4-methylpiperazin-1-yl)pyridine-2-carbonitrile]
